# Experimental data reported in US12428406B2 (PMV Pharmaceuticals, Inc., priority 2019, dated 2025).
# Target: T1, p53 Y220C (Homo sapiens, UniProt P04637, Y220C)
# T1 construct: The recombinant protein was a truncation mutant containing only amino acids 94-312 of p53; made in house; host or cells: E. coli
# Test: In vitro DNA binding activity assay (HTRF / TR-FRET): stabilization of p53 Y220C and increase of its DNA binding activity
# Assay type: biochemical
# Details: recombinant His-tagged p53 Y220C DNA binding domain (aa 94-312), biotin-labeled consensus DNA, incubated at 27° C. or 29° C. for 60 min
# In short: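 His-tagged p53 Y220C, E. coli-expressed, binding biotin-labeled consensus DNA measured by HTRF (anti-His-APC, streptavidin-europium). Compounds from 4.5 mM DMSO stocks, 3-fold serial dilutions; incubations at room temperature 15 min, then 20 min. SC150 = concentration raising DNA binding by 50%.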
# T1 sequence (P04637 94-312, change not shown): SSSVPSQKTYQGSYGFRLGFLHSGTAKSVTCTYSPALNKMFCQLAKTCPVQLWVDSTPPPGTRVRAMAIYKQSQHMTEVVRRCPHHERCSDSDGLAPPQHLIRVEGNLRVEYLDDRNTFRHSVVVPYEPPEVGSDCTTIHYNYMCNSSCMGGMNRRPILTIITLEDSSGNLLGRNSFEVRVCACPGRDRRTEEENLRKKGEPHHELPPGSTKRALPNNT
row,SMILES,SC150 (concentration of the compound required to increase the DNA binding activity by 50%)
1,"CNC(=O)c1ccc(NCC#Cc2cc3c(N[C@H]4CC[C@@H](N5CC6(COC6)C5)CC4)cccc3n2CC(F)(F)F)c(OCCF)c1 [Compound 241A, 3-(2-fluoroethoxy)-N-methyl-4-{[3-(4-{[(1S,4S)-4-{2-oxa-6-azaspiro[3.3]heptan-6-yl}cyclohexyl]amino}-1-(2,2,2-trifluoroethyl)-1H-indol-2-yl)prop-2-yn-1-yl]amino}benzamide]",+ (+ = 0 μM ≤ SC150 < 0.05 μM)
2,"CNC(=O)c1ccc(NCC#Cc2cc3c(N[C@H]4CC[C@H](N5CC6(COC6)C5)CC4)cccc3n2CC(F)(F)F)c(OCC#N)c1 [Compound 242A, 3-(cyanomethoxy)-N-methyl-4-{[3-(4-{[(1R,4R)-4-{2-oxa-6-azaspiro[3.3]heptan-6-yl}cyclohexyl]amino}-1-(2,2,2-trifluoroethyl)-1H-indol-2-yl)prop-2-yn-1-yl]amino}benzamide]",+ (+ = 0 μM ≤ SC150 < 0.05 μM)
3,"CNC(=O)c1ccc(NCC#Cc2cc3c(N[C@H]4CC[C@@H](N5CC6(COC6)C5)CC4)cccc3n2CC(F)(F)F)c(OCC#N)c1 [Compound 243A, 3-(cyanomethoxy)-N-methyl-4-{[3-(4-{[(1S,4S)-4-{2-oxa-6-azaspiro[3.3]heptan-6-yl}cyclohexyl]amino}-1-(2,2,2-trifluoroethyl)-1H-indol-2-yl)prop-2-yn-1-yl]amino}benzamide]",+ (+ = 0 μM ≤ SC150 < 0.05 μM)
4,"CNc1cc(S(C)(=O)=O)ccc1OCC#Cc1cc2c(N[C@H]3CC[C@@H](N4CC5(COC5)C4)CC3)cccc2n1CC(F)(F)F [Compound 244A, 2-{3-[4-methanesulfonyl-2-(methylamino)phenoxy]prop-1-yn-1-yl}-N-[(1S,4S)-4-{2-oxa-6-azaspiro[3.3]heptan-6-yl}cyclohexyl]-1-(2,2,2-trifluoroethyl)-1H-indol-4-amine]",++ (++ = 0.05 μM ≤ SC150 < 0.1 μM)
5,"CNc1cc(S(C)(=O)=O)ccc1OCC#Cc1cc2c(NC3CCC(N4CC5(COC5)C4)CC3)cccc2n1CC(F)(F)F [Compound 245A, 2-{3-[4-methanesulfonyl-2-(methylamino)phenoxy]prop-1-yn-1-yl}-N-[(1R,4R)-4-{2-oxa-6-azaspiro[3.3]heptan-6-yl}cyclohexyl]-1-(2,2,2-trifluoroethyl)-1H-indol-4-amine]",+ (+ = 0 μM ≤ SC150 < 0.05 μM)
6,"CNC(=O)c1ccc(NCC#Cc2cc3c(N[C@H]4CC[C@H](N5CC6(COC6)C5)CC4)cccc3n2CC(F)(F)F)c(O)c1 [Compound 248A, 3-hydroxy-N-methyl-4-{[3-(4-{[(1R,4R)-4-{2-oxa-6-azaspiro[3.3]heptan-6-yl}cyclo-hexyl]amino}-1-(2,2,2-trifluoroethyl)-1H-indol-2-yl)prop-2-yn-1-yl]amino}benzamide]",+ (+ = 0 μM ≤ SC150 < 0.05 μM)
7,"COc1cc(C#N)ccc1NCC#Cc1cc2c(NC3CCC(N4CC5(COC5)C4)CC3)cccc2n1CC(F)(F)F (stereo not drawn) [Compound 249A, 3-methoxy-4-[(3-{4-[(4-{2-oxa-6-azaspiro[3.3]heptan-6-yl}cyclohexyl)amino]-1-(2,2,2-trifluoroethyl)-1H-indol-2-yl}prop-2-yn-1-yl)amino]benzonitrile]",+ (+ = 0 μM ≤ SC150 < 0.05 μM)
8,"COc1cc(C#N)ccc1NCC#Cc1cc2c(NC3CCC(N4CC5(COC5)C4)CC3)cccc2n1CC(F)(F)F [Compound 250A, 3-methoxy-4-{[3-(4-{[(1S,4S)-4-{2-oxa-6-azaspiro[3.3]heptan-6-yl}cyclohexyl]amino}-1-(2,2,2-trifluoroethyl)-1H-indol-2-yl)prop-2-yn-1-yl]amino}benzonitrile]",+ (+ = 0 μM ≤ SC150 < 0.05 μM)
9,"COc1cc(C(C)(C)C#N)ccc1NCC#Cc1cc2c(NC3CCC(N4CC5(COC5)C4)CC3)cccc2n1CC(F)(F)F [Compound 251A, 2-(3-methoxy-4-{[3-(4-{[(1R,4R)-4-{2-oxa-6-azaspiro[3.3]heptan-6-yl}cyclohexyl]amino}-1-(2,2,2-trifluoroethyl)-1H-indol-2-yl)prop-2-yn-1-yl]amino}phenyl)-2-methylpropanenitrile]",+ (+ = 0 μM ≤ SC150 < 0.05 μM)
10,"CNC(=O)c1ccc(NCC#Cc2cc3c(NC4CCC(N5CC6(COC6)C5)CC4)cccc3n2CC(F)(F)F)c(OCF)c1 [Compound 253A, 3-(fluoromethoxy)-N-methyl-4-{[3-(4-{[(1R,4R)-4-{2-oxa-6-azaspiro[3.3]heptan-6-yl}cyclohexyl]amino}-1-(2,2,2-trifluoroethyl)-1H-indol-2-yl)prop-2-yn-1-yl]amino} benzamide]",+ (+ = 0 μM ≤ SC150 < 0.05 μM)
11,"CNC(=O)c1ccc(NCC#Cc2cc3c(NC4CCC(N5CC6(COC6)C5)CC4)cccc3n2CC(F)(F)F)c(OCCC#N)c1 [Compound 255A, 3-(2-cyanoethoxy)-N-methyl-4-{[3-(4-{[(1R,4R)-4-{2-oxa-6-azaspiro[3.3]heptan-6-yl}cyclohexyl]amino}-1-(2,2,2-trifluoroethyl)-1H-indol-2-yl)prop-2-yn-1-yl]amino}benzamide]",+ (+ = 0 μM ≤ SC150 < 0.05 μM)
12,"CS(=O)(=O)c1ccc(NCC#Cc2cc3c(NC4CCC(N5CC6(COC6)C5)CC4)cccc3n2CC(F)(F)F)c(OCF)c1 [Compound 257A, 2-(3-{[2-(fluoro-methoxy)-4-methane-sulfonylphenyl]amino}prop-1-yn-1-yl)-N-[(1R,4R)-4-{2-oxa-6-azaspiro[3.3]heptan-6-yl}cyclo-hexyl]-1-(2,2,2-trifluoroethyl)-1H-indol-4-amine]",+ (+ = 0 μM ≤ SC150 < 0.05 μM)
13,"N#CCOc1cc(S(N)(=O)=O)ccc1NCC#Cc1cc2c(NC3CCC(N4CC5(COC5)C4)CC3)cccc2n1CC(F)(F)F [Compound 259A, 3-(cyanomethoxy)-4-{[3-(4-{[(1R,4R)-4-{2-oxa-6-azaspiro[3.3]heptan-6-yl}cyclo-hexyl]amino}-1-(2,2,2-trifluoroethyl)-1H-indol-2-yl)prop-2-yn-1-yl]amino}benzene-1-sulfonamide]",+ (+ = 0 μM ≤ SC150 < 0.05 μM)
14,"NS(=O)(=O)c1ccc(NCC#Cc2cc3c(N[C@H]4CC[C@H](N5CC6(COC6)C5)CC4)cccc3n2CC(F)(F)F)c(OCF)c1 [Compound 261A, 3-(fluoromethoxy)-4-{[3-(4-{[(1R,4R)-4-{2-oxa-6-azaspiro[3.3]heptan-6-yl}cyclo-hexyl]amino}-1-(2,2,2-trifluoroethyl)-1H-indol-2-yl)prop-2-yn-1-yl]amino}benzene-1-sulfonamide]",+ (+ = 0 μM ≤ SC150 < 0.05 μM)
15,"CNS(=O)(=O)c1ccc(NCC#Cc2cc3c(N[C@H]4CC[C@H](N5CC6(COC6)C5)CC4)cccc3n2CC(F)(F)F)c(OC)c1 [Compound 263A, 4-((3-(4-(((1R,4R)-4-(2-oxa-6-azaspiro[3.3]heptan-6-yl)cyclo-hexyl)amino)-1-(2,2,2-trifluoroethyl)-1H-indol-2-yl)prop-2-yn-1-yl)amino)-3-methoxy-N-methylbenzene-sulfonamide]",+ (+ = 0 μM ≤ SC150 < 0.05 μM)
